Measurements as given in patent US6127382A, “Amines substituted with a tetrahydroquinolinyl group an aryl or heteroaryl group and an alkyl group, having retinoid-like biological activity” (Allergan Sales, Inc., priority 1999, dated 2000).
pKi: −log10 of the molar value.

Key:
RARα = target: T1, RARα (Homo sapiens, UniProt P10276); experiment: ligand binding assay, RARα; details: read-out: RAR Bind Ki α
T1 sequence (P10276 1-462): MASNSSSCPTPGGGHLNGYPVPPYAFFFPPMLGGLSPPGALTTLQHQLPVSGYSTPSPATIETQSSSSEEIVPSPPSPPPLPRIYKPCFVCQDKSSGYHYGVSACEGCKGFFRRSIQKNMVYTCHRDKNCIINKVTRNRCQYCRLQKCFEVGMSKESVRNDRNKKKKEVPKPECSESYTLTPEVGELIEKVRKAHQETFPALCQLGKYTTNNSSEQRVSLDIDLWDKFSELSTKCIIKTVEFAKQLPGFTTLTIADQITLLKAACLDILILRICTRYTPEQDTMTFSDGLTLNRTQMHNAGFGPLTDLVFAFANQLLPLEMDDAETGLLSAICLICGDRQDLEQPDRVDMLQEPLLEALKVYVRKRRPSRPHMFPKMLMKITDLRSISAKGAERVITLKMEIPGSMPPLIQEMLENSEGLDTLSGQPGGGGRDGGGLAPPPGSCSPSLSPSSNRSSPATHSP
Source text: (§1) Other assays described below, measure the ability of the compounds of the present invention to bind to, and/or activate various retinoid receptor subtypes. When in these assays a compound binds to a given receptor subtype and activates the transcription of a reporter gene through that subtype, then the compound is considered an agonist of that receptor subtype. […] In the below described assays the ability of the compounds to bind to RARα, RARβ, RARγ, RXRα, RXRβ and RXRγ receptors, and the ability or inability of the compounds to activate transcription of a reporter gene through these receptor subtypes can be tested. […] However, some of the compounds of the invention may behave as retinoid antagonists or partial antagonists and/or as inverse agonists. Because of the complex distribution of the different retinoid receptors in various organs of the mammalian body partial agonists and partial antagonists and compounds which have the characteristics of both may lend themselves to particularly useful therapeutic applications and may avoid serious side effects of conventional retinoid drugs.
(§2) A holoreceptor transactivation assay and a ligand binding assay which measure the antagonist/agonist like activity of the compounds of the invention, or their ability to bind to the several retinoid receptor subtypes, respectively, are described in published PCT Application No. WO WO93/11755 (particularly on pages 30-33 and 37-41) published on Jun. 24, 1993, the specification of which is also incorporated herein by reference. A detailed experimental procedure for holoreceptor transactivations has been described by Heyman et al. Cell 68, 397-406, (1992); Allegretto et al. J. Biol. Chem. 268, 26625-26633, and Mangelsdorf et al. The Retinoids: Biology, Chemistry and Medicine, pp 319-349, Raven Press Ltd., New York, which are expressly incorporated herein by reference. The results obtained in this assay are expressed in EC50 numbers, as they are also in the chimeric receptor transactivation assay. The results of ligand binding assay are expressed in Kd numbers. (See Cheng et al. Biochemical Pharmacology Vol. 22 pp 3099-3108, expressly incorporated herein by reference.)
(§3) Table 1 discloses the activity of certain exemplary compounds of the invention in the above-described chimeric receptor transactivation assay, holoreceptor transactivation assay and a ligand binding assays. Particularly, the transactivation data pertaining to RAR receptors were obtained in the chimeric assay, and the data pertaining to transactivation of RXR receptors were obtained in the holoreceptor transactivation assay.

RARβ = target: T2, RARβ (Homo sapiens, UniProt P10826); experiment: ligand binding assay, RARβ; details: read-out: RAR Bind Ki β
T2 sequence (P10826 1-448 isoform P10826-2): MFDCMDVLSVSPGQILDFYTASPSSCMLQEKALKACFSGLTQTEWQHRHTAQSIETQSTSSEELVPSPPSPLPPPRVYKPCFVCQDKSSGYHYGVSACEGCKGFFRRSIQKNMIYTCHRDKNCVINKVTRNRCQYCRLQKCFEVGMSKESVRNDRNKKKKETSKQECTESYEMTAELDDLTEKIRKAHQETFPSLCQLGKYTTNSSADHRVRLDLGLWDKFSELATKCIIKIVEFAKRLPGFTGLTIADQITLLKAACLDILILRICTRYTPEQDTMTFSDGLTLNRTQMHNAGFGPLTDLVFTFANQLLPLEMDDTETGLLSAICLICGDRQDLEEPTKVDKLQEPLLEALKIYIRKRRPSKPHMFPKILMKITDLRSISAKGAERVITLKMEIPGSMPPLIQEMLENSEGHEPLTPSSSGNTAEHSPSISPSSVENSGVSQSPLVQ
Source text: as §1, §2, §3

RARγ = target: T3, RARγ (Homo sapiens, UniProt P13631); experiment: ligand binding assay, RARγ; details: read-out: RAR Bind Ki γ
T3 sequence (P13631 1-454): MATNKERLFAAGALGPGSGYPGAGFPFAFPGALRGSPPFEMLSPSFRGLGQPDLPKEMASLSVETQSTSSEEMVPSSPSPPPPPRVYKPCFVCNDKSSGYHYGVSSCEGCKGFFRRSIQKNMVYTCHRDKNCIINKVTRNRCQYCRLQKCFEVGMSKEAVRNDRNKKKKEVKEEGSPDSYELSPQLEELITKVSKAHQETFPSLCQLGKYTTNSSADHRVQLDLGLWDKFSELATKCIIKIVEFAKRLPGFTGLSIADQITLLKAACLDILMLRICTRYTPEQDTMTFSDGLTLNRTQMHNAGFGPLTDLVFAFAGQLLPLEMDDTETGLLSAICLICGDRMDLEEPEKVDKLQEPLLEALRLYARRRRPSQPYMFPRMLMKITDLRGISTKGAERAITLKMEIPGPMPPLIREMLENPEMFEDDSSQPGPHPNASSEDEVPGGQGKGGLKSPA
Source text: as §1, §2, §3

RXRα = target: T4, RXRα (Homo sapiens, UniProt P19793); experiment: ligand binding assay, RXRα; details: read-out: RXR Bind Ki α
T4 construct: expressed in transfected cells
T4 sequence (P19793 1-462): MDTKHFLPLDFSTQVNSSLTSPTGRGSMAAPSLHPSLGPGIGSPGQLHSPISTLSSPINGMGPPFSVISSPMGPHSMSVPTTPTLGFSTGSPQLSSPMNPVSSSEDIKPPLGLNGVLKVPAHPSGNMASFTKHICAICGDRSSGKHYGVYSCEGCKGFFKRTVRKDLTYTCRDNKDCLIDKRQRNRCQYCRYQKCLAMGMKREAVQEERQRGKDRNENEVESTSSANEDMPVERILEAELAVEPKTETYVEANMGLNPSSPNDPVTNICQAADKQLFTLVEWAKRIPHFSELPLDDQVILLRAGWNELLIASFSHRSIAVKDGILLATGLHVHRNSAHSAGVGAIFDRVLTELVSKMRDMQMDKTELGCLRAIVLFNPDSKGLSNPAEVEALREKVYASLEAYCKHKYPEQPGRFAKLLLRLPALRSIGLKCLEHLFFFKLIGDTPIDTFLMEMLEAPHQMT
Source text: as §1, §2, §3

RXRγ = target: T5, RXRγ (Homo sapiens, UniProt P48443); experiment: ligand binding assay, RXRγ; details: read-out: RXR Bind Ki γ
T5 sequence (P48443 1-463): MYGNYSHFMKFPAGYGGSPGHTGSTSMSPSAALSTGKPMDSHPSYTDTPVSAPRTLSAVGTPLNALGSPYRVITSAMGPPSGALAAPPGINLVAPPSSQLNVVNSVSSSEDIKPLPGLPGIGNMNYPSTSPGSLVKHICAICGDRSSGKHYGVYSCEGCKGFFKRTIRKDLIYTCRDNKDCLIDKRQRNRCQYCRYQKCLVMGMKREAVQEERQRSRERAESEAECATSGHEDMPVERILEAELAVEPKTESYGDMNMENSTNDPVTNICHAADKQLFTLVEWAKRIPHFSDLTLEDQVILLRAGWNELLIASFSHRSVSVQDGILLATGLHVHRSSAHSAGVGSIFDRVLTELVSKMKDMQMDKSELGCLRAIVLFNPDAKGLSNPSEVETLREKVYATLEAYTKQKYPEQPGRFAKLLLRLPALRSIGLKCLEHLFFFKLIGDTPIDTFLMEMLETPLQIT
Source text: as §1, §2, §3

ornithine decarboxylase = details: literature; cited from earlier work

| pKi (RARα) | pKi (RARβ) | pKi (RARγ) | pKi (RXRα) | pKi (RXRγ) | SMILES | inhibition of induction of ODC activity by TPA (ornithine decarboxylase) |
| --- | --- | --- | --- | --- | --- | --- |
| < 4.52 | < 4.52 | < 4.52 | 4.25 | < 4.00 | CC(C)N1C(=O)CC(C)(C)c2cc(N(C)c3ccc(C(=O)O)cc3)ccc21 [Compound 5, 4-[(1-Isopropyl-4,4-dimethyl-2-oxo-1,2,3,4-tetrahydroquinolin-6-yl)methylamino]benzoic Acid] |  |
|  |  |  |  |  | CC1=C(/C=C/C(C)=C/C=C/C(C)=C/C(=O)O)C(C)(C)CCC1 [Retinoic acid, retinoic acid] | inhibits this induction of ODC activity by TPA |
